The supplement of paper PMC10307832

Assays:
Assay in all cases: relative viability (nuclei count vs DMSO), 5 days (fraction); higher = more cells survive
Zosuquidar + Phenformin = compound: O[C@@H](COc1cccc2ncccc12)CN1CCN([C@@H]2c3ccccc3[C@@H]3[C@H](c4ccccc42)C3(F)F)CC1 [Zosuquidar] + N=C(N)NC(=N)NCCc1ccccc1 [Phenformin] (partner 250 µM)
How it was run: (§1)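 The day after seeding in 1536-well plates, lung cancer cell lines were treated by pin tool with a single drug, or with a fixed anchor-drug dose together with five library-drug doses (not always all listed) in √10 steps. After 5 days, a combined fix-and-stain solution (final 0.05% Triton X-100, 1% formaldehyde, 1 ug/ml Hoechst) was added. Nuclei counted on 4× images gave relative viability as treated counts over vehicle counts, reported as the median of duplicate plates.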

Kobe2602 + Pictilisib = compound: C1=CC(=CC=C1NC(=S)NNC2=C(C=C(C=C2[N+](=O)[O-])C(F)(F)F)[N+](=O)[O-])F [Kobe2602] + CS(=O)(=O)N1CCN(Cc2cc3nc(-c4cccc5[nH]ncc45)nc(N4CCOCC4)c3s2)CC1 [Pictilisib] (partner 1 µM)
How it was run: as §1

Cabozantinib + Alpelisib = compound: COc1cc2nccc(Oc3ccc(NC(=O)C4(C(=O)Nc5ccc(F)cc5)CC4)cc3)c2cc1OC [Cabozantinib] + Cc1nc(NC(=O)N2CCC[C@H]2C(N)=O)sc1-c1ccnc(C(C)(C)C(F)(F)F)c1 [Alpelisib] (partner 2 µM)
How it was run: as §1

Kobe2602 + Trametinib = compound: C1=CC(=CC=C1NC(=S)NNC2=C(C=C(C=C2[N+](=O)[O-])C(F)(F)F)[N+](=O)[O-])F [Kobe2602] + CC(=O)Nc1cccc(-n2c(=O)n(C3CC3)c(=O)c3c(Nc4ccc(I)cc4F)n(C)c(=O)c(C)c32)c1 [Trametinib] (partner 0.02 µM)
How it was run: as §1

Cell Line	relative viability (Zosuquidar + Phenformin; first compound 0.01 µM)	relative viability (Zosuquidar + Phenformin; first compound 0.03162 µM)	relative viability (Zosuquidar + Phenformin; first compound 0.1 µM)	relative viability (Zosuquidar + Phenformin; first compound 0.3162 µM)	relative viability (Zosuquidar + Phenformin; first compound 1 µM)	relative viability (Kobe2602 + Pictilisib; first compound 0.2 µM)	relative viability (Kobe2602 + Pictilisib; first compound 0.6325 µM)	relative viability (Kobe2602 + Pictilisib; first compound 2 µM)	relative viability (Kobe2602 + Pictilisib; first compound 6.325 µM)	relative viability (Kobe2602 + Pictilisib; first compound 20 µM)	relative viability (Cabozantinib + Alpelisib; first compound 0.02 µM)	relative viability (Cabozantinib + Alpelisib; first compound 0.06325 µM)	relative viability (Cabozantinib + Alpelisib; first compound 0.2 µM)	relative viability (Cabozantinib + Alpelisib; first compound 0.6325 µM)	relative viability (Cabozantinib + Alpelisib; first compound 2 µM)	relative viability (Kobe2602 + Trametinib; first compound 0.2 µM)	relative viability (Kobe2602 + Trametinib; first compound 0.6325 µM)	relative viability (Kobe2602 + Trametinib; first compound 2 µM)	relative viability (Kobe2602 + Trametinib; first compound 6.325 µM)	relative viability (Kobe2602 + Trametinib; first compound 20 µM)
201T	0.449	0.444	0.404	0.468	0.472	0.69	0.718	0.672	0.686	0.697	1.03	1.05	0.981	0.99	0.958	0.711	0.715	0.741	0.771	0.677
A549	0.19	0.176	0.145	0.255	0.172		0.476	0.487	0.524	0.514	0.877	0.884	0.833	0.809	0.794					
A-427	0.344	0.324	0.368	0.401	0.383	0.742	0.925	0.741	0.774	0.98	1.08	1.12	1.12	1.05	1.01	0.804	0.745	0.793	0.739	0.742
ABC-1	0.253	0.257	0.252	0.256	0.266	0.821	1.03	0.768	0.923	0.868	0.865	1.16	1.01	1.01	0.995					
BEN	0.268	0.245	0.263	0.265	0.26	0.607	0.581	0.733	0.523	0.645	0.992	1.11	1.01	1.06	0.776	1.01	1.16	1.17	1.06	1.14
CAL-12T	0.634	0.629	0.554	0.576	0.582	0.59	0.556	0.394	0.387	0.548	1.23	1.27	1.19	1.16	1.18	0.331	0.337	0.37	0.412	0.318
COR-L23	0.422	0.413	0.416	0.514	0.453	0.766	0.695	0.811	0.837	0.832	0.717	0.883	0.855	0.699	0.59	0.569	0.587	0.575	0.549	0.679
COR-L 105	0.547	0.404	0.409	0.478	0.437	0.434	0.433	0.377	0.455	0.387	0.898	1.08		0.945	0.859	0.378	0.49	0.417	0.395	0.402
Calu-6						0.935	0.931	0.856	0.885	0.882	1.02	1.09	1.05	1.04	0.906					
